Values of other authors in patent publication EP0005248A2, “Tetrapeptidehydrazide derivatives and process for their preparation” (Takeda Chemical Industries, Ltd., priority 1978, dated 1979).

Settings: for analgesic action: intravenous administration

Question: Which morphinomimetic action (directly administered by the intracerebral route) does the source give for H=ryr -Gly-Gly-Phe-Met-OH here?
Answer: Its morphinomimetic action is “display a morphinemimetic action”.

Question: And the analgesic action?
Answer: The analgesic action was “do not have an analgesic action”.

Question: Which analgesic action does the source give for “β-Endorphin (YGGFMTSEKSQTPLVTLFKNAIIKNAYKKGE; Beta-endorphin; UniProt P01189 237-267, looked up)” here?
Answer: Its analgesic action is “profound analgesic effects”.
